Values after ≈ are worked out from the molar mass of the structure shown.
What was measured:
A-427 [1] = experiment: Inhibitory concentration in human lung carcinoma A427/VCR cell line; assay type: functional, cell-based
Sus scrofa = species: Sus scrofa; experiment: Concentration that induces microtubule assembly (tubulin obtained from porcine brain) by 50% in the absence of GTP; assay type: functional
A-427 [2] = experiment: Inhibitory concentration in human lung carcinoma A427 cell line; assay type: functional, cell-based
[3] = Solubility was determined; assay type: physicochemical

Row | Compound | IC50 (A-427 [1]) [µM] | ED50 (Sus scrofa) [µM] | IC50 (A-427 [2]) [µM] | solubility [3] [mg/mL]
1 | CC(=O)NC1C(O)CC(OCCOCCOCCNC(=O)O[C@H]2C[C@H]3OC[C@@]3(OC(C)=O)C3[C@H](OC(=O)c4ccccc4)[C@]4(O)C[C@H](OC(=O)[C@H](O)[C@@H](NC(=O)c5ccccc5)c5ccccc5)C(C)=C([C@@H](OC(C)=O)C(=O)[C@@]32C)C4(C)C)(C(=O)O)OC1[C@H](O)[C@@H](O)CO (stereo not given in full) | 1 | 3.86 | 0.1 | 28 (≈ 21.2 mM)
2 | CC(=O)O[C@H]1C(=O)[C@@]2(C)[C@H]([C@H](OC(=O)c3ccccc3)[C@]3(O)C[C@H](OC(=O)[C@H](O)[C@@H](NC(=O)c4ccccc4)c4ccccc4)C(C)=C1C3(C)C)[C@]1(OC(C)=O)CO[C@@H]1C[C@@H]2O [PACLITAXEL] |  | 0.86 |  | 
